# Laboratory results from patent publication US10954269B2, “Anti-inflammatory tripeptides” (Dr. August Wolff Gmbh & Co. KG Arzneimittel, priority 2013, dated 2021).
# [ ]: non-standard residue; d: D form. Aib = CC(C)(N)C(=O)O
# Columns and labels:
# primary murine T-cells = assay: Cytokine secretion on protein level in activated primary murine T-cells (13-plex FACS / Luminex, supernatant); type: cell-based, C57BL/6 mice; details: 10^−9M
# Protocol: (§1) Primary T-cells were isolated from peripheral blood from healthy volunteers and from secondary lymphatic organs from naïve C57BL/6 mice, respectively. The cells were stimulated with phorbol-12-myristate-13-acetate (PMA)/Ionomycin and interferon-gamma (IFN-γ), respectively, for 48 h to activate the cells. The activated cells release pro-inflammatory cytokines. In parallel a human (HaCaT) keratinocyte cell line was activated with PMA/Ionomycin and IFN-γ, respectively, too. […] At the same time release of anti-inflammatory IL-10 was inhibited. Two days after addition of PMA/Ionomycin and IFN-γ, respectively, the induction of IL-1 secretion was determined in the supernatant for proving that the cells are activated. […] The anti-inflammatory properties of the tripeptides were determined 48 h and 72 h following stimulation. A 13-plex-system based FACS analysis was used for showing the reduced secretion of pro-inflammatory cytokines in the supernatant. Data for IL-1, IL-2, IL-6, IL-12p70 IL-17, IFN-γ and TNF-α are considered to be most relevant. Thus, analysis of the anti-inflammatory properties of the tripeptides is preferably based on the results obtained for these analytes. […] Using this method the gene expression of pro-inflammatory markers like IL-6, IL-17, IFN-γ and TNF-α was determined.
# In a third experiment murine and human T cells and HaCaT cells were stimulated with PMA/Ionomycin and treated with Examples 14, 15, 16 and 17 at 10^−7 M, 10^−9 M and 10^−11 M. Cytokine concentrations (IFN-γ, IL-17 and IL-10 for T cells and IFN-γ for HaCat) were assessed in the supernatants using the Luminex technology. Expression of genes coding for Il-1β, IL-6 and TNF-α was determined. […] Moreover, concentrations of pro-inflammatory cytokines IFN-γ and IL-17 was reduced in the supernatants whereas the concentration of anti-inflammatory cytokine IL-10 was increased.
# The anti-inflammatory and immunomodulatory effects of selected examples of the present invention were compared with common immunosuppressants. Thus, cells activated with PMA/Ionomycin and IFN-γ, respectively, were stimulated with MMF or dexamethasone. Following stimulation the secretion of pro-inflammatory cytokines was analyzed on protein and gene level (Table 9 and FIGS. 4-6).
# primary human T-cells = assay: Cytokine secretion on protein level in activated primary human T-cells (13-plex FACS / Luminex, supernatant); type: cell-based; details: 10^−9M
# Protocol: as §1
# (§2) In a third experiment murine and human T cells and HaCaT cells were stimulated with PMA/Ionomycin and treated with Examples 14, 15, 16 and 17 at 10^−7 M, 10^−9 M and 10^−11 M. Cytokine concentrations (IFN-γ, IL-17 and IL-10 for T cells and IFN-γ for HaCat) were assessed in the supernatants using the Luminex technology. Expression of genes coding for Il-1β, IL-6 and TNF-α was determined. […] Moreover, concentrations of pro-inflammatory cytokines IFN-γ and IL-17 was reduced in the supernatants whereas the concentration of anti-inflammatory cytokine IL-10 was increased. […]
# (§3) For the biological assay two human cell lines of different origin were chosen to allow for translation of the results obtained. A HaCaT cell is a cell type belonging to an immortal human keratinocyte line used in scientific research. Its use in research allows for the characterization of human keratinocyte using a model that is reproducible and representing a human epithelial cell line. In contrast human T-lymphocytes (T-cells) are a type of lymphocyte (itself a type of white blood cell) that play a central role in cell-mediated inflammation/immunity.
# [1] = test system: human keratinocyte cell line (HaCaT); assay: Cytokine secretion on protein level in activated human keratinocyte cell line HaCaT (13-plex FACS / Luminex, supernatant); type: cell-based; details: for IL-1 cytokine concentration / IL-2 cytokine concentration / IL-4 cytokine concentration / IL-5 cytokine concentration / IL-6 cytokine concentration / IL-9 cytokine concentration / IL-10 cytokine concentration / IL-13 cytokine concentration / IL-17 cytokine concentration / TNF-α cytokine concentration / IL-12p70 cytokine concentration / IL-22 cytokine concentration / IFN-γ cytokine concentration: 10^−9M; for IL-12p70 cytokine concentration / IL-22 cytokine concentration: excluded from the final assessment
# Protocol: as §1, §2, §3
# [2] = primary murine T-cells stimulated with IFN-γ
# [3] = primary murine T-cells stimulated with PBS
# [4] = primary murine T-cells stimulated with PMA/Ionomycin
# [5] = primary murine T-cells stimulated with PMA/Ionomycin, 1:10 dilution of the supernatants
# [6] = primary human T-cells stimulated with IFN-γ
# [7] = primary human T-cells stimulated with PBS
# [8] = primary human T-cells stimulated with PMA/Ionomycin
# [9] = HaCaT stimulated with PMA/Ionomycin
substance,measurement,setting,value
H-Lys-[dP]-[Aib]-OH [Example 1],IL-1 cytokine concentration,primary murine T-cells; [2],0 pg/mL
same,IL-2 cytokine concentration,primary murine T-cells; [2],0 pg/mL
same,IL-4 cytokine concentration,primary murine T-cells; [2],0 pg/mL
same,IL-5 cytokine concentration,primary murine T-cells; [2],0 pg/mL
same,IL-6 cytokine concentration,primary murine T-cells; [2],6.51 pg/mL
same,IL-10 cytokine concentration,primary murine T-cells; [2],0 pg/mL
same,IL-13 cytokine concentration,primary murine T-cells; [2],0 pg/mL
same,IL-17 cytokine concentration,primary murine T-cells; [2],10.81 pg/mL
same,IL-21 cytokine concentration,primary murine T-cells; [2],0 pg/mL
same,IL-22 cytokine concentration,primary murine T-cells; [2],0 pg/mL
same,IL-27 cytokine concentration,primary murine T-cells; [2],179.72 pg/mL
same,TNF-α cytokine concentration,primary murine T-cells; [2],0 pg/mL
same,IFN-γ cytokine concentration,primary murine T-cells; [3],0 pg/mL
same,IL-1 cytokine concentration,primary murine T-cells; [3],53.09 pg/mL
same,IL-2 cytokine concentration,primary murine T-cells; [3],0 pg/mL
same,IL-4 cytokine concentration,primary murine T-cells; [3],0 pg/mL
same,IL-5 cytokine concentration,primary murine T-cells; [3],0 pg/mL
same,IL-6 cytokine concentration,primary murine T-cells; [3],0 pg/mL
same,IL-10 cytokine concentration,primary murine T-cells; [3],110.76 pg/mL
same,IL-13 cytokine concentration,primary murine T-cells; [3],0 pg/mL
same,IL-17 cytokine concentration,primary murine T-cells; [3],0 pg/mL
same,IL-21 cytokine concentration,primary murine T-cells; [3],0 pg/mL
same,IL-22 cytokine concentration,primary murine T-cells; [3],0 pg/mL
same,IL-27 cytokine concentration,primary murine T-cells; [3],379.78 pg/mL
same,TNF-α cytokine concentration,primary murine T-cells; [3],0 pg/mL
same,IL-1 cytokine concentration,primary murine T-cells; [4],60.61 pg/mL
same,IL-4 cytokine concentration,primary murine T-cells; [4],0 pg/mL
same,IL-5 cytokine concentration,primary murine T-cells; [4],292.17 pg/mL
same,IL-6 cytokine concentration,primary murine T-cells; [4],239.47 pg/mL
same,IL-10 cytokine concentration,primary murine T-cells; [4],145.26 pg/mL
same,IL-13 cytokine concentration,primary murine T-cells; [4],3898.42 pg/mL
same,IL-17 cytokine concentration,primary murine T-cells; [4],459.99 pg/mL
same,IL-21 cytokine concentration,primary murine T-cells; [4],0 pg/mL
same,IL-22 cytokine concentration,primary murine T-cells; [4],526.42 pg/mL
same,IL-27 cytokine concentration,primary murine T-cells; [4],426.79 pg/mL
same,TNF-α cytokine concentration,primary murine T-cells; [4],535.51 pg/mL
same,IFN-γ* cytokine concentration,primary murine T-cells; [5],0 pg/mL
same,IL-2* cytokine concentration,primary murine T-cells; [5],1354.76 pg/mL
same,IL-1 cytokine concentration,primary human T-cells; [6],296.42 pg/mL
same,IL-2 cytokine concentration,primary human T-cells; [6],515.89 pg/mL
same,IL-4 cytokine concentration,primary human T-cells; [6],180.24 pg/mL
same,IL-5 cytokine concentration,primary human T-cells; [6],112.65 pg/mL
same,IL-6 cytokine concentration,primary human T-cells; [6],131.33 pg/mL
same,IL-9 cytokine concentration,primary human T-cells; [6],111.14 pg/mL
same,IL-10 cytokine concentration,primary human T-cells; [6],164.32 pg/mL
same,IL-12p70 cytokine concentration,primary human T-cells; [6],945.16 pg/mL
same,IL-13 cytokine concentration,primary human T-cells; [6],82.57 pg/mL
same,IL-17 cytokine concentration,primary human T-cells; [6],234.65 pg/mL
same,IL-22 cytokine concentration,primary human T-cells; [6],21389.5 pg/mL
same,TNF-α cytokine concentration,primary human T-cells; [6],230.57 pg/mL
same,IFN-γ cytokine concentration,primary human T-cells; [7],634.2 pg/mL
same,IL-1 cytokine concentration,primary human T-cells; [7],398.01 pg/mL
same,IL-2 cytokine concentration,primary human T-cells; [7],545.22 pg/mL
same,IL-4 cytokine concentration,primary human T-cells; [7],198.06 pg/mL
same,IL-5 cytokine concentration,primary human T-cells; [7],275.55 pg/mL
same,IL-6 cytokine concentration,primary human T-cells; [7],85.95 pg/mL
same,IL-9 cytokine concentration,primary human T-cells; [7],131.69 pg/mL
same,IL-10 cytokine concentration,primary human T-cells; [7],107.07 pg/mL
same,IL-12p70 cytokine concentration,primary human T-cells; [7],223.67 pg/mL
same,IL-13 cytokine concentration,primary human T-cells; [7],77.6 pg/mL
same,IL-17 cytokine concentration,primary human T-cells; [7],295.13 pg/mL
same,IL-22 cytokine concentration,primary human T-cells; [7],2227.62 pg/mL
same,TNF-α cytokine concentration,primary human T-cells; [7],203.95 pg/mL
same,IFN-γ cytokine concentration,primary human T-cells; [8],2516.08 pg/mL
same,IL-1 cytokine concentration,primary human T-cells; [8],11244.1 pg/mL
same,IL-2 cytokine concentration,primary human T-cells; [8],12000 pg/mL
same,IL-4 cytokine concentration,primary human T-cells; [8],209.61 pg/mL
same,IL-5 cytokine concentration,primary human T-cells; [8],204.84 pg/mL
same,IL-6 cytokine concentration,primary human T-cells; [8],1868.8 pg/mL
same,IL-9 cytokine concentration,primary human T-cells; [8],159.86 pg/mL
same,IL-10 cytokine concentration,primary human T-cells; [8],3032.66 pg/mL
same,IL-12p70 cytokine concentration,primary human T-cells; [8],925.71 pg/mL
same,IL-13 cytokine concentration,primary human T-cells; [8],398.98 pg/mL
same,IL-17 cytokine concentration,primary human T-cells; [8],2443.34 pg/mL
same,IL-22 cytokine concentration,primary human T-cells; [8],24324.9 pg/mL
same,TNF-α cytokine concentration,primary human T-cells; [8],3600 pg/mL
same,IL-1 cytokine concentration,[1]; HaCaT stimulated with IFN-γ,251.36 pg/mL
same,IL-2 cytokine concentration,[1]; HaCaT stimulated with IFN-γ,95.81 pg/mL
same,IL-4 cytokine concentration,[1]; HaCaT stimulated with IFN-γ,88.93 pg/mL
same,IL-5 cytokine concentration,[1]; HaCaT stimulated with IFN-γ,156.74 pg/mL
same,IL-6 cytokine concentration,[1]; HaCaT stimulated with IFN-γ,704.01 pg/mL
same,IL-9 cytokine concentration,[1]; HaCaT stimulated with IFN-γ,96.1 pg/mL
same,IL-10 cytokine concentration,[1]; HaCaT stimulated with IFN-γ,107.72 pg/mL
same,IL-13 cytokine concentration,[1]; HaCaT stimulated with IFN-γ,57.99 pg/mL
same,IL-17 cytokine concentration,[1]; HaCaT stimulated with IFN-γ,612.41 pg/mL
same,TNF-α cytokine concentration,[1]; HaCaT stimulated with IFN-γ,101.29 pg/mL
same,IL-12p70 cytokine concentration,[1]; HaCaT stimulated with IFN-γ,1872.11 pg/mL
same,IL-22 cytokine concentration,[1]; HaCaT stimulated with IFN-γ,18014.5 pg/mL
same,IFN-γ cytokine concentration,[1]; HaCaT stimulated with PBS,373.53 pg/mL
same,IL-1 cytokine concentration,[1]; HaCaT stimulated with PBS,224.9 pg/mL
same,IL-2 cytokine concentration,[1]; HaCaT stimulated with PBS,87.98 pg/mL
same,IL-4 cytokine concentration,[1]; HaCaT stimulated with PBS,85.92 pg/mL
same,IL-5 cytokine concentration,[1]; HaCaT stimulated with PBS,181.61 pg/mL
same,IL-6 cytokine concentration,[1]; HaCaT stimulated with PBS,77.53 pg/mL
same,IL-9 cytokine concentration,[1]; HaCaT stimulated with PBS,112.82 pg/mL
same,IL-10 cytokine concentration,[1]; HaCaT stimulated with PBS,166.47 pg/mL
same,IL-13 cytokine concentration,[1]; HaCaT stimulated with PBS,64.17 pg/mL
same,IL-17 cytokine concentration,[1]; HaCaT stimulated with PBS,562.61 pg/mL
same,TNF-α cytokine concentration,[1]; HaCaT stimulated with PBS,87.84 pg/mL
same,IL-12p70 cytokine concentration,[1]; HaCaT stimulated with PBS,1881.61 pg/mL
same,IL-22 cytokine concentration,[1]; HaCaT stimulated with PBS,18087.5 pg/mL
same,IFN-γ cytokine concentration,[1]; [9],531 pg/mL
same,IL-1 cytokine concentration,[1]; [9],118.79 pg/mL
same,IL-2 cytokine concentration,[1]; [9],184.58 pg/mL
same,IL-4 cytokine concentration,[1]; [9],78.12 pg/mL
same,IL-5 cytokine concentration,[1]; [9],141.02 pg/mL
same,IL-6 cytokine concentration,[1]; [9],131.98 pg/mL
same,IL-9 cytokine concentration,[1]; [9],108.97 pg/mL
same,IL-10 cytokine concentration,[1]; [9],48.13 pg/mL
same,IL-13 cytokine concentration,[1]; [9],49.03 pg/mL
same,IL-17 cytokine concentration,[1]; [9],449.68 pg/mL
same,TNF-α cytokine concentration,[1]; [9],77.12 pg/mL
same,IL-12p70 cytokine concentration,[1]; [9],0 pg/mL
same,IL-22 cytokine concentration,[1]; [9],8956.12 pg/mL
same,secretion / expression of pro-inflammatory cytokines (supernatant),[1]; activated human keratinocytes,decreased secretion
